# What was measured:
# Experiment in all cases: Herbicidal Effectiveness Test
# Format in all cases: in vivo
# Settings in all cases: tank mix with Roundup PM 11 fl oz/a, Clarity 6 fl oz/a
# LIUSS Flax = system: LIUSS Flax
# Protocol: (§1) 4 diluted sprayable herbicide tank mixes were prepared using water with an hardness of 1000 ppm, 0.25% v/v of NIS and the adjuvant concentrates of Example 1 and 3-5.
# (§2) For comparative purpose, two other diluted herbicide sprayable tank mixes with two different adjuvants, AMS and DPK 50, were prepared.
# (§3) The formulations contained, as herbicides, Roundup® PM for an application rate of 11 fl oz/a (803 ml/h) and Clarity® for an application rate of 6 fl oz/a (438 ml/h).
# (§4) The formulation were applied on a multispecies system.
# (§5) The herbicidal performances were evaluated by awarding scores to the treated plants in comparison to untreated control plants. The evaluation scale ranges from 0% to 100% herbicidal activity. 100% activity means the complete death at least of those parts of the plant that are above ground.
# (§6) The results 14 and 28 days after the treatment are reported in the following Table 3 and Table 4 respectively.
# AMASS Amaranth = system: AMASS Amaranth
# Protocol: as §1, §2, §3, §4, §5, §6
# HELSS Sunflower = system: HELSS Sunflower
# Protocol: as §1, §2, §3, §4, §5, §6
# ZEAMX Corn = system: ZEAMX Corn
# Protocol: as §1, §2, §3, §4, §5, §6
# [1] = 14 days after treatment, adjuvant 8.5 lb/100 gal, 0.25% v/v NIS, water hardness 1000 ppm
# [2] = 14 days after treatment, adjuvant 17 lb/100 gal, 0.25% v/v NIS, water hardness 1000 ppm
# [3] = 28 days after treatment, adjuvant 8.5 lb/100 gal
# [4] = 28 days after treatment, adjuvant 17 lb/100 gal
structure (smiles),measurement,setting,value
"N.N.O=S(=O)(O)O [AMS, ammonium sulfate]","herbicidal activity, Flax",LIUSS Flax; [1],74.3%
same,"herbicidal activity, Flax",LIUSS Flax; [2],88.3%
same,"herbicidal activity, Flax",LIUSS Flax; [3],76%
same,"herbicidal activity, Flax",LIUSS Flax; [4],90%
same,"herbicidal activity, Amaranth",AMASS Amaranth; [1],75.3%
same,"herbicidal activity, Amaranth",AMASS Amaranth; [2],91%
same,"herbicidal activity, Amaranth",AMASS Amaranth; [3],79.3%
same,"herbicidal activity, Amaranth",AMASS Amaranth; [4],96%
same,"herbicidal activity, Sunflower",HELSS Sunflower; [1],81%
same,"herbicidal activity, Sunflower",HELSS Sunflower; [2],94.3%
same,"herbicidal activity, Sunflower",HELSS Sunflower; [3],91.7%
same,"herbicidal activity, Sunflower",HELSS Sunflower; [4],95%
same,"herbicidal activity, Corn",ZEAMX Corn; [1],95%
same,"herbicidal activity, Corn",ZEAMX Corn; [2],96.3%
same,"herbicidal activity, Corn",ZEAMX Corn; [3],95%
same,"herbicidal activity, Corn",ZEAMX Corn; [4],97%

# Source: patent publication US9420781B1, “Agrochemical adjuvant concentrate for herbicides” (LAMBERTI SpA, priority 2015, dated 2016)
